Measurements published in patent EP3095787A1, “[…] ACTIVE COMPOUNDS AS DAG-LIPASE INHIBITORS” (Universiteit Leiden, priority 2015, dated 2016).
Entries after “also recorded” stand apart in the source; their conditions may differ.

Experiments:
[1] = target: FAAH; details: reported value; cited from earlier work
[2] = system: serine hydrolases; assay: Comparative and competitive gel ABPP selectivity in mouse brain membrane proteome (TAMRA-FP and MB064); type: biochemical; details: 10 µM; TAMRA-FP 500 nM and MB064 250 nM
Experimental: For gel based ABPP experiments mouse brain proteome (2.0 mg/mL, 20 µL) was preincubated for 30 min with vehicle (DMSO) or compound to be tested in 0.5 µL DMSO at rt. And subsequently treated with 500 nM (final concentration) TAMRA-FP (TAMRA-FP was bought at Thermo Fischer) for 15 minutes at rt. The reactions were quenched with 10 µL standard 3 x SDS page sample buffer. The samples were directly loaded and resolved on SDS page gel (10 % acrylamide). The gels were scanned with a ChemiDoc MP sytem (Biorad, Cy 3 settings, 605/50 filter) and analyzed using Image Lab 4.1.
To investigate the selectivity of compound 25 in the mouse brain proteome comparative and competitive ABPP was used with a broad-spectrum FP-based probe (TAMRA-FP) and the tailored DAGL-α ABP MB064. As a reference the widely used β-lactone-based DAGL-inhibitors THL and OMDM-188, two broad-spectrum covalent and irreversible serine hydrolase inhibitors, were firstly tested.

[3] = target: T1, cannabinoid CB1 receptor (Homo sapiens, UniProt P21554); assay: [3H]CP55940 displacement assay on CHOK1hCB1_bgal membranes; type: binding
T1 construct: expressed in transfected cells; host or cells: CHOK1hCB1_bgal (CHO-K1), membranes
T1 sequence (P21554 whole entry): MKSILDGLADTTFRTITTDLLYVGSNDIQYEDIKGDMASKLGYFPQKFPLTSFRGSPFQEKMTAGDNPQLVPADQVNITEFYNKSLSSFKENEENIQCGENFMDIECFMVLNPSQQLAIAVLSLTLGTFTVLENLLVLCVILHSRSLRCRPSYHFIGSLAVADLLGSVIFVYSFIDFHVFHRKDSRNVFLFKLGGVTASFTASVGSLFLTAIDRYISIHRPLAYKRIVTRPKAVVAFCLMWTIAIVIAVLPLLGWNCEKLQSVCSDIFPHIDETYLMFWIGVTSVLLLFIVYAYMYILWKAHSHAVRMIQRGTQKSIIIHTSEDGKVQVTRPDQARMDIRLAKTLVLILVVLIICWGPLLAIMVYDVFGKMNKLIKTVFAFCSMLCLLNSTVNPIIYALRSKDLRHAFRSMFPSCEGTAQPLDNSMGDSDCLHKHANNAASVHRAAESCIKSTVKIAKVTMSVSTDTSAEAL
Experimental: CHOK1hCB1_bgal cells (CHOK1 cell line expressing human cannabinoid receptor 1) were cultured in Ham's F12 Nutrient Mixture supplemented with 10% fetal calf serum, 1 mM glutamine, 50 U/mL penicillin, 50 µg/ml streptomycin, […] hygromycin and 800 µg/mL geneticin in a humidified atmosphere at 37°C and 5% CO2. Cells were subcultured twice a week at a ratio of 1:20 on 10-cm ø plates by trypsinization. For membrane preparation the cells were subcultured 1:10 and transferred to large 15-cm diameter plates.
The cells on thirty 15-cm ø plates were detached from the bottom by scraping them into 5 mL phosphate-buffered saline (PBS), collected in 12 mL Falcon tubes and centrifuged for 5 minutes at 200 x g (3,000 rpm). The pellets were resuspended in ice-cold 50 mM Tris-HCl buffer and 5 mM MgCl2 (pH 7.4). […] Membrane protein concentrations were measured using the BCA method.
[^3H]CP55940 displacement assays were used for high throughput screening of cold ligands and the determination of their affinity (Ki) and IC50 values. […] Nonspecific binding was determined in the presence of 10 µM AM630 (6-lodopravadoline; a selective inverse agonist for the cannabinoid receptor CB2). […] After 2 hours, the filter-bound radioactivity was determined by scintillation spectrometry using a Tri-Carb 2900 TR liquid scintillation counter (Perkin Elmer, Boston, MA).

[4] = system: human PC3 cells; assay: Lipidomics in PC3 cells; type: cell-based; details: 4h at 37 °C in serum free medium
Experimental: To test the activity of inventive compound 25 in a human cell line, human PC3 cells (prostate cancer cell line) were used. The protocol for lipodomics in PC3 cells is given below. Before inhibitor treatment, the culture medium was removed and the cells were washed with warm (37 °C) serum free medium (3x). The cells were treated with vehicle (DMSO) or inhibitor for 4h at 37 °C in serum free medium. After 4h of incubation medium was removed and the cells were washed with cold (4°C) DPBS (3x) and subsequently suspended in DPBS and pelleted. The cell pellet metabolome was extracted and by MeOH/CHCl3 extraction and analysed by LCMS/MS of a triple quad mass spectometer (agilent). The concentration of the lipids was determined by comparison with spiked deuterated standards of the lipd species. […] This may indicate that downstream metabolic pathways of 2-AG signaling are also affected and that the biosynthesis of 2-AG is the rate-limiting step.

O=C(CCCCCc1ccccc1)c1nc2ncccc2o1 [Compound 1, 1-(Oxazolo[4,5-b]pyridin-2-yl)-6-phenylhexan-1-one, reference compound]
FAAH Activity assay reported pKi [1]: 9.70

Cc1ccc(-c2cnc3nc(C(=O)CCCCCc4ccccc4)oc3c2)cc1 [Compound 25, 1-(6-(p-Tolyl)oxazolo[4,5-b]pyridin-2-yl)-6-phenylhexan-1-one]
labeling of other bands (selectivity) [2]: excellent selectivity; also recorded: did not inhibit labeling of any other band | displacement of 3H-CP55940 from the CB1 receptor ([3]; 10 µM): did not displace | Ki ([3]; CB1 receptor radioligand displacement): > 10 µM | 2-AG levels [4]: reduced 2-AG levels | arachidonic acid levels [4]: reduced | substrate levels of DAGL [4]: no change
